From patent US10391095B2, “DNA-PK inhibitors” (Vertex Pharmaceuticals Incorporated, priority 2012, dated 2019) come the findings set out here.

The target of the assay is DNA-PK (Homo sapiens, UniProt P78527). The assay can be described thus: DNA-PK inhibition assay (radiometric, 33P-ATP). In kind it is biochemical. As to conditions: 100 μM ATP, competitive tight-binding fit. The method, boiled down:
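33P transfer from 100 µM ATP to a DNA-PK peptide (0.8 mg/mL) is measured after 45 min, using about 6 nM enzyme activated by 10 µg/mL sheared dsDNA (HEPES pH 7.5, MgCl2, DTT). Filter-bound counts fitted to a competitive tight-binding inhibition model give Ki.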

Molecule `COc1cc(Br)ccc1C(C)CNc1cc(-c2ccc(C)nc2)ncn1` (stereo not drawn) [Compound 423] registered a Ki below 30 nM. Consider `COc1ccccc1[C@H](C)CNc1cc(-c2ccc(Nc3nn[nH]n3)nc2)ncn1` [Compound 203], for which the Ki is below 30 nM. The molecule `CCNc1ccc(-c2cc(NC[C@@H](C)c3cc(C)nc4c3OCC4)ncn2)cn1` [Compound 575] yielded a Ki below 30 nM. Next, `CNC(=O)c1c(F)cnc2c([C@H](C)CNc3cc(-c4cnc(OC)c(CO)c4)ncn3)cccc12` [Compound 884]: below 30 nM; `C[C@H](CNc1cc(-c2cnc3[nH]ncc3c2)ncn1)c1ccnc2c1OCC2` [Compound 437]: below 30 nM; `CNC(=O)c1c(F)cnc2c([C@H](C)CNc3cc(-c4ccc(F)nc4)ncn3)cccc12` [Compound 899]: below 30 nM. Turning to `CNC(=O)c1ccnc2c([C@H](C)CNc3cc(-c4cnnc(C)c4)ncn3)cccc12` [Compound 841], the Ki was below 30 nM. Then `CNC(=O)c1ccnc2c([C@H](C)CNc3cc(-c4ccc(C(=O)OC)s4)ncn3)cccc12` [Compound 774], with below 30 nM. Then `CNC(=O)c1ccc([C@H](C)CNc2cc(-c3ccc(NC4CCOC4)nc3)ncn2)c(OC)c1` (single isomer, unassigned) [Compound 391], with below 30 nM. Then `COc1ccccc1[C@H](C)CNc1cc(-c2ccnc(-c3ccnc(F)c3)c2)ncn1` [Compound 105], with below 30 nM. `CNC(=O)c1ccnc2c([C@H](C)CNc3cc(-c4ccc(C5CC5)nc4)ncn3)ccc(F)c12` [Compound 852] had a Ki below 30 nM. In turn, `COc1ccccc1CCNc1cc(-c2cnc3c(ccn3CC3CC3)c2)ncn1` [Compound 40] yielded a Ki below 30 nM. Then `CNC(=O)c1ccnc2c([C@H](C)CNc3cc(-c4ccc(C(F)(F)F)nc4)ncn3)cccc12` [Compound 649], with below 30 nM. Then `CCNc1ccc(-c2cc(NC[C@@H](C)c3ccc(C(=O)NC)cc3OC)ncn2)cn1` [Compound 360], with below 30 nM; and `Cc1ccc(-c2cc(NCC(C)c3ccnc4cccnc34)ncn2)cn1` (stereo not drawn) [Compound 331], with below 30 nM; and `CN1CCN(c2ccc(-c3cc(NCCc4ccccc4OC4CC4)ncn3)cn2)CC1=O` [Compound 142], with below 30 nM.

`COc1ccccc1[C@H](C)CNc1cc(-c2ccc(NCCO)nc2)ncn1` [Compound 118] displayed a Ki below 30 nM. Then `CNC(=O)c1ccc([C@H](C)CNc2cc(-c3ccc(C(C)=O)cc3)ncn2)c(OC)c1` [Compound 319], with below 30 nM.

`CNC(=O)c1ccc([C@H](C)CNc2cc(-c3ccc(N(C)CCOC)nc3)ncn2)c(OC)c1` [Compound 370] gave a Ki below 30 nM. Molecule `CNC(=O)c1ccnc2c([C@H](C)CNc3cc(-c4cnc(C)c(F)c4)ncn3)ccc(F)c12` [Compound 974] had a Ki below 30 nM. `CNC(=O)c1ccnc2c([C@H](C)CNc3cc(-c4ccc(C(C)(C)C#N)cc4)ncn3)cccc12` [Compound 679] displayed a Ki below 30 nM. Molecule `CNC(=O)c1ccnc2c([C@H](C)CNc3cc(-c4ccc(NC5CCN(Cc6ccccc6)C5)nc4)ncn3)cccc12` (stereo partly drawn) [Compound 701] registered a Ki below 30 nM.

Turning to `COc1ccccc1[C@H](C)CNc1cc(-c2ccc(NC3CCN(C4CC4)CC3)nc2)ncn1` [Compound 242], the Ki is below 30 nM.

`Cc1ccc(-c2cc(NCC(C)c3ccccc3OC3CCCCC3)ncn2)cn1` (stereo not drawn) [Compound 183] yielded a Ki below 30 nM.

As for `CNC(=O)c1ccnc2c([C@H](C)CNc3cc(-c4ccc(S(C)(=O)=O)nc4)ncn3)cccc12` [Compound 587], the inhibition constant Ki is below 30 nM.

For the molecule `CNC(=O)c1ccnc2c([C@H](C)CNc3cc(-c4ccc(C(O)C(C)C)nc4)ncn3)ccc(F)c12` (stereo partly drawn) [Compound 926], the Ki is below 30 nM. Next, `COc1ccccc1CCNc1cc(-c2cnc3c(cnn3C(C)C)c2)ncn1` [Compound 44]: below 30 nM; `C=CCNc1ccc(-c2cc(NC[C@@H](C)c3ccc(C(=O)NC)cc3OC)ncn2)cn1` [Compound 387]: below 30 nM. The molecule `CNC(=O)c1ccnc2c([C@H](C)CNc3cc(-c4ccc(-c5nnnn5C)nc4)ncn3)cccc12` [Compound 958] showed a Ki below 30 nM. With `C[C@H](CNc1cc(-c2cc(F)c3ncccc3c2)ncn1)c1ccnc2c1OCC2` [Compound 597], the Ki was below 30 nM. Next, `CNC(=O)c1ccc(-c2cc(NC[C@@H](C)c3cccc4c(C(=O)NC)ccnc34)ncn2)s1` [Compound 776]: below 30 nM; `COc1ccccc1[C@H](C)CNc1cc(-c2cnc3c(cnn3CC(O)CO)c2)ncn1` (single isomer, unassigned) [Compound 149]: below 30 nM. Then `CNC(=O)c1ccnc2c([C@H](C)CNc3cc(-c4ccc(NCCc5ccc(C)o5)nc4)ncn3)cccc12` [Compound 738], with below 30 nM; and `C[C@H](CNc1cc(-c2cnc(N)c(Cl)c2)ncn1)c1ccnc2c1OCCO2` [Compound 553], with below 30 nM. Next, `CNC(=O)c1ccnc2c([C@H](C)CNc3cc(-c4ccc([S+](C)[O-])cc4)ncn3)cccc12` (stereo partly drawn) [Compound 677]: below 30 nM; `CNC(=O)c1ccnc2c([C@H](C)CNc3cc(-c4ccnc(N5CCCC5=O)c4)ncn3)cccc12` [Compound 893]: below 30 nM; `Cc1ncc(-c2cc(NC[C@@H](C)c3cccc4c(C(F)F)ccnc34)ncn2)cn1` [Compound 669]: below 30 nM. In turn, `Cc1ccc(-c2cc(NC[C@@H](C)c3ccnc4cc(C)oc34)ncn2)cn1` [Compound 563] came in with a Ki below 30 nM.

In the case of `CNC(=O)c1ccc(C(C)CNc2cc(-c3cnc4c(cnn4C4CN(C(C)=O)C4)c3)ncn2)c(OC)c1` (stereo not drawn) [Compound 248], the Ki was below 30 nM.

`CNC(=O)c1ccnc2c([C@H](C)CNc3cc(-c4ccc(C5CCC5)nc4)ncn3)cccc12` [Compound 845] showed a Ki below 30 nM. Then `CNC(=O)c1ccnc2c([C@H](C)CNc3cc(-c4ccc(C)nc4)ncn3)cc(F)c(F)c12` [Compound 638], with below 30 nM. Then `CNC(=O)c1c(F)cnc2c([C@H](C)CNc3cc(-c4csc(-n5cccn5)n4)ncn3)cccc12` [Compound 782], with below 30 nM; and `CNC(=O)c1ccnc2c([C@H](C)CNc3cc(-c4ccc(N)nc4)ncn3)cccc12` [Compound 586], with below 30 nM; and `CC(CNc1cc(-c2cnc3c(cnn3CCO)c2)ncn1)c1ccnc2ccoc12` (stereo not drawn) [Compound 429], with below 30 nM. Then `CNC(=O)c1ccnc2c([C@H](C)CNc3cc(-c4cnc5c(c4)OCCN5)ncn3)cccc12` [Compound 817], with below 30 nM; and `C[C@H](CNc1cc(-c2ccc(N3CCOCC3)nc2)ncn1)c1ccnc2c1OCCO2` [Compound 522], with below 30 nM. As to `CNC(=O)c1ccc([C@H](C)CNc2cc(-c3ccc4c(c3)ncn4C)ncn2)c(OC)c1` [Compound 263], the inhibition constant Ki was below 30 nM. `CCNc1ccc(-c2cc(NC[C@@H](C)c3cc(F)cc4c(C(=O)NC)ccnc34)ncn2)cn1` [Compound 572] showed a Ki below 30 nM. Next, `CCNc1ccc(-c2cc(NC[C@@H](C)c3cccc4c(C(=O)NC)c(F)cnc34)ncn2)cn1` [Compound 979]: below 30 nM. Next, `CNC(=O)c1ccnc2c([C@H](C)CNc3cc(-c4ccc(C)nc4)ncn3)cccc12` [Compound 476]: below 30 nM; `CNC(=O)c1ccnc2c([C@H](C)CNc3cc(-c4cnc(C)nc4)ncn3)cc(F)cc12` [Compound 637]: below 30 nM; `Cc1ccc(-c2cc(NCC(C)c3ccc(F)c4cccnc34)ncn2)cn1` (stereo not drawn) [Compound 303]: below 30 nM. Next, `Cc1ccc(-c2cc(NCC(C)c3cccc4cc(F)cnc34)ncn2)cn1` (stereo not drawn) [Compound 346]: below 30 nM; `CNC(=O)c1ccnc2c([C@H](C)CNc3cc(-c4ccnc(C)c4)ncn3)ccc(F)c12` [Compound 903]: below 30 nM; `C[C@H](CNc1cc(-c2cnc3c(cnn3CCO)c2)ncn1)c1ccnc2cccnc12` [Compound 472]: below 30 nM. With `CNC(=O)c1ccnc2c([C@H](C)CNc3cc(-c4ccc(N[C@@H]5COC[C@H]5O)nc4)ncn3)cccc12` [Compound 726], the Ki is below 30 nM. Next, `CNC(=O)c1ccnc2c([C@H](C)CNc3cc(-c4ccnc(C(F)(F)F)c4)ncn3)cccc12` [Compound 812]: below 30 nM; `CNC(=O)c1ccc(C(C)CNc2cc(-c3cnc(C)nc3)ncn2)c(OC)c1` (stereo not drawn) [Compound 193]: below 30 nM. Next, `CNC(=O)c1ccnc2c([C@H](C)CNc3cc(-c4cnc(C)s4)ncn3)ccc(F)c12` [Compound 827]: below 30 nM. Then `CNC(=O)c1ccnc2c([C@H](C)CNc3cc(-c4ccc(F)nc4)ncn3)ccc(F)c12` [Compound 907], with below 30 nM. As to `Cc1ccc(-c2cc(NCC(C)c3ccccc3OCC3CCCO3)ncn2)cn1` (stereo not drawn) [Compound 195], the Ki was below 30 nM. In turn, `CNC(=O)c1ccnc2c([C@H](C)CNc3cc(-c4cc(F)c(OC)c(F)c4)ncn3)cccc12` [Compound 824] returned a Ki below 30 nM.

In turn, `C[C@H](CNc1cc(-c2cc(C(F)(F)F)c3ncccc3c2)ncn1)c1ccnc2c1OCC2` [Compound 591] returned a Ki below 30 nM. Next, `Cc1ccc(-c2cc(NCC(C)c3cncnc3OC3CCC3)ncn2)cn1` (stereo not drawn) [Compound 299]: below 30 nM; `Cc1ccc(-c2cc(NCC(C)c3ccc(F)cc3OC3CC3)ncn2)cn1` (stereo not drawn) [Compound 270]: below 30 nM; `Cc1ccc(-c2cc(NC[C@@H](C)c3cccc4c3OCCN4)ncn2)cn1` [Compound 513]: below 30 nM. Next, `CCOC(=O)C(C)(C)n1ncc2cc(-c3cc(NCC(C)c4ccc(C(=O)NC)cc4OC)ncn3)cnc21` (stereo not drawn) [Compound 276]: below 30 nM. Turning to `CNC(=O)c1ccnc2c([C@H](C)CNc3cc(-c4ccc(N(C)C5CCS(=O)(=O)C5)nc4)ncn3)cccc12` (stereo partly drawn) [Compound 711], the Ki is below 30 nM. Then `CNC(=O)c1ccnc2c([C@H](C)CNc3cc(-c4ccc(C(=O)O)cc4)ncn3)cccc12` [Compound 672], with below 30 nM.

Broadly, the Ki is the dissociation constant of the complex between target and ligand, obtained from inhibition or displacement.
